Consider one molecule from patent US11285119B2, “Anti-inflammatory composition” (NEOPHARM CO., LTD., priority 2016, dated 2022).

One series relates to atopic dermatitis. Briefly: Atopic dermatitis improvement effect (EASI score) in pediatric patients. In kind it is in vivo, human. The note with it: 30 pediatric patients with atopic dermatitis, twice a day for 4 weeks. The method, then: In order to measure atopic dermatitis improvement effect, the anti-inflammatory compositions were prepared according to the following Examples. Here, the atopic dermatitis improvement effect was measured using an eczema area severity index (EASI) score. 30 pediatric patients with atopic dermatitis were treated twice a day for 4 weeks, and then effects on atopic symptoms were measured.

The next series concerns IL-17A. Briefly: Anti-inflammatory effect: IL-17A expression in atopic dermatitis-induced 3D culture tissue (immunohistochemistry). Format: cell-based. The following applies: compared with the skin model in which atopic dermatitis was induced, 72 hours, quantified immunohistochemistry (FIG. 2), read-out: IL-17A inhibitory effect. The method, then: (§1) In order to measure the anti-inflammatory efficacy, atopic dermatitis was induced with respect to IL-8 and IL-17A, which are inflammation-inducing cytokines, and expression amounts thereof were measured.
(§2) In order to induce atopic dermatitis, the 3D culture tissue (EpiDerm Full Thickness 400, sold by MatTek) media containing Poly (I:C), TNF-α, IL-4 and IL-13 were used, and treated for 72 hours with N-(2-hydroxyethyl)octanamide at a final concentration of 100 μM. Then, the 3D culture tissue was immobilized on formalin to make a paraffin block, and the degree of expression of inflammation-inducing cytokine was evaluated.
(§3) In FIG. 1, AD represents a skin model in which atopic dermatitis was induced, and the anti-inflammatory effect was evaluated based on the expression amounts of IL-8 and IL-17A.
(§4) Further, the inhibitory effect of each cytokine was quantified based on the results obtained through the immunohistochemistry obtained in FIG. 1, and shown in FIG. 2.

The test system of series [1] is human fibroblast (ATCC 2076). Briefly: Confirmation of cytotoxicity (MTT cell viability). The following applies: for Cell viability (%): human fibroblast, MTT. Format: cell-based. The method, then: The cell viability for human fibroblast (ATCC 2076) was measured using the anti-inflammatory composition prepared in the following Examples.
The human fibroblast (ATCC 2076) with a concentration of 5×10^4 cells/ml was inoculated into a 24-well culture plate of Iscove's Modified Dulbecco's Medium (IMDM, GIBCO) containing 10% bovine serum. […] Then, the supernatant was removed, the cells were washed with 200 μl of 5% phosphate buffered saline (PBS), 1.0 ml of MTT solution was added to each well, and after 4 hours, and the MTT was removed. Next, 1.0 ml of DMSO was added to each well, and incubation was performed overnight at 37° C. The absorbance at 570 nm was measured to determine the cell viability using Equation 1 below, and results thereof are shown in Table 1 below. Here, as a negative control group, a test group in which the active ingredient was not used was adopted. Cell viability (%)=(A570λvalue/B570λvalue)×100 [Equation 1]
A: Absorbance value at 570 nm of Example
B: Absorbance value at 570 nm of negative control group

The next series deals with IL-8. Briefly: Anti-inflammatory effect: IL-8 expression in atopic dermatitis-induced 3D culture tissue (immunohistochemistry). The note with it: compared with the skin model in which atopic dermatitis was induced, 72 hours, quantified immunohistochemistry (FIG. 2), read-out: IL-8 inhibitory effect. Format: cell-based. The method, then: as §1, §2, §3, §4

`CCCCC(CC)C(=O)NC(CO)CO` (stereo not shown) [Example 1, N-(1,3-dihydroxypropan-2-yl)-2-ethylhexanamide]: the “Atopic dermatitis improvement effect (EASI score)” value in the series on atopic dermatitis is “significant numerical decrease”. Moreover, the results for the inhibition at 100 µM with IL-17A and in the series with IL-8 were ≥ 58.9% and ≥ 48.5%, respectively. The Cytotoxicity result in series [1] (in the concentration range of the evaluation method) is “no cytotoxicity”. Also, the “Cell viability (%)” value in series [1] (used amount 0.00064 μM) was 110%; in series [1] (used amount 0.0032 μM), 106%; in series [1] (used amount 0.016 μM), 99%; in series [1] (used amount 0.08 μM) it was 100%; in series [1] (used amount 0.4 μM), 98%; in series [1] (used amount 2 μM), 101%. In addition, the “Cell viability (%)” value in series [1] (used amount 10 μM) stood at 101%; in series [1] (used amount 50 μM), 101%; in series [1] (used amount 250 μM), 108%.
